Data taken from patent publication US20160058753A1, “Nalmefene for Treatment of Patients with Mood Disorder” (H. LUNDBECK A/S, priority 2013, published 2016).

Experiments:
[1] = test system: patients with alcohol dependence; test: Study 12013A: clinical efficacy on the reduction of alcohol consumption (HDD, TAC); format: in vivo, human; settings: for HDD / TAC: patients with a mood disorder at baseline according to MINI assessment
Description: (§1) The diagnosis of alcohol dependence was based on the DSM-IV-TR criteria. For this purpose, the investigator interviewed the patient in a structured way by using the Mini International Neuropsychiatric Interview (MINI) standardized interview (Lecrubier et al. The Mini International Neuropsychiatric Interview (M.I.N.I.). A short diagnostic structured interview: Reliability and validity according to the CIDI. European Psychiat. (1997), 12: 224-31). The M.I.N.I. is designed as a brief structured interview for the major Axis I psychiatric disorders in DSM-IV. Its use permits a standardised assessment of the diagnostic criteria. The M.I.N.I. interview was used at the screening visit. Clinicians used it after a training session. The M.I.N.I. approach was used to select patients with a mood disorder at baseline in Example 3.
(§2) Another approach to identify patients with a mood disorder is by defining mood disorder at baseline as any ongoing medical history coded by the Medical Dictionary for Regulatory Activities (MedDRA) Preferred Term as ‘Affective Disorder’, ‘Bipolar Disorder’, ‘Depressed Mood’, ‘Depression’, ‘Dysthymic Disorder’, ‘Hypomania’, ‘Major Depression’, ‘Mood Disorder Due To A General Medical Condition’ and/or ‘Seasonal Affective Disorder’. In examples 1 and 2 below patients classified with a mood disorder at baseline was selected based on said MedDRA terms.
The efficacy of nalmefene on the reduction of alcohol consumption in patients with alcohol dependence (DSM-IV) was evaluated in a multi-national, multi-site, randomised, double blind, two parallel group, placebo controlled 1 year safety study (Study 12013A). The efficacy was evaluated over 24 weeks of treatment. The study included outpatients, aged ≧18 years, with a primary diagnosis of alcohol dependence. […] Patients with psychiatric co-morbidity (that is, patients who used stable doses of antipsychotics and/or certain antidepressants) were also included unless the treatment of the psychiatric comorbidity had to take priority over treatment of the drinking problem, or was likely to interfere with study treatment or impairs treatment compliance.
The study included 639 patients, 482 of whom were treated with nalmefene 18 mg in an as-needed dosing regimen. A motivational and adherence enhancing intervention was administered to all the patients to support the patients in changing their behavior and to enhance adherence to treatment.
The efficacy of nalmefene on the reduction of alcohol consumption was measured using two co-primary endpoints: the change from baseline to Month 6 in the monthly number of heavy drinking days (HDDs) and the change from baseline to Month 6 in the average daily total alcohol consumption (TAC). A HDD was defined as a day with a consumption ≧60 g alcohol for men and ≧40 g for women.
(§3) Table 10 below outlines drinking variables and POMS TMD score patients from the 12013A study with a mood disorder at baseline who were classified based on MINI standardized interviews.

δ receptor = δ receptor (Homo sapiens, UniProt P41143); settings: in vitro; cited from earlier work
Sequence of δ receptor (P41143 whole entry): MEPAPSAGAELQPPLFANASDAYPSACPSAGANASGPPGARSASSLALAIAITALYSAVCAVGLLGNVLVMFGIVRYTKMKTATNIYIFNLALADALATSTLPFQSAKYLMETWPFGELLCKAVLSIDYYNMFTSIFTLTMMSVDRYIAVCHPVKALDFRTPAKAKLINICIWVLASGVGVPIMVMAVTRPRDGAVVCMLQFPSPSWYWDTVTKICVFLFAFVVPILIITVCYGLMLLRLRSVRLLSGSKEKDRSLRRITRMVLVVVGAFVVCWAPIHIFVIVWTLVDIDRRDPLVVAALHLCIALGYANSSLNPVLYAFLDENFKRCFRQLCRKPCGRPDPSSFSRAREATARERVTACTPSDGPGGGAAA

Rats (Wistar) = test: Forced swim test in rats; format: in vivo, rat; settings: 0.01, 0.1 and 1 mg/kg s.c. 30 minutes before the test, versus vehicle
Experimental: The method, which detects antidepressant activity, follows that described by Porsolt et al (Eur. J. Pharmacol., 47, 379-391, 1978). Rats forced to swim in a situation from which they cannot escape eventually become immobile. Antidepressants decrease the duration of immobility.
Nalmefene was tested as the sole active compound. Rats (Wistar) were individually placed in a cylinder (height=40 cm; diameter=20 cm) containing 13 cm water (25° C.) for 15 minutes on the first day of the experiment (Session 1) and were then placed back in the water 24 hours later for a 5 minute test (Session 2). The duration of immobility during the 5 minute test was measured. 6 rats were studied per group. The test was performed blind. Nalmefene was evaluated at 3 doses (0.01, 0.1 and 1 mg/kg), administered s.c. 30 minutes before the test, and compared with a vehicle control group.
Data with the test substance were analysed by comparing treated groups with vehicle control using one-way ANOVA followed by post-hoc Dunnett's tests. Data with the reference substance were analysed using unpaired Student's t tests.

Mice (NMRI) [2] = test: Marble burying test in mouse; format: in vivo; settings: for Number of marbles covered by sawdust, Mean ± SEM: 30 minute test, 25 marbles
Description: The method, which detects anxiolytic/tranquillizing activity, follows that described by Broekkamp et al (Eur. J. Pharmacol., 126, 223-229, 1986). Mice exposed to novel objects (marbles) will bury them in the sawdust floor covering. Anxiolytics decrease the number of marbles buried at non-sedative doses.
Mice (NMRI) were individually placed in transparent plastic cages (33×21×18 cm) with 5 cm of sawdust on the floor and 25 marbles grouped in the centre of the cage. The cage was covered with an inverted plastic cage. Each test cage, together with the marbles, was impregnated with mouse odor before-hand by leaving 10 mice in the cage for 15 minutes. These mice then played no further role in the experiment.
Nalmefene was tested in the marble burying model as the sole active compound. The number of marbles covered by sawdust (⅔ or more) was counted at the end of a 30 minute test. 12 mice were studied per group. The test was performed blind. Nalmefene was evaluated at 3 doses (0.01, 0.1 and 1 mg/kg), administered s.c. 30 minutes before the test, and compared with a vehicle control group. Clobazam (8 mg/kg s.c.), administered under the same experimental conditions, was used as reference substance. The experiment therefore included 8 groups.
Data with Nalmefene were analysed by comparing treated groups with vehicle control using Kruskall-Wallis test followed by Mann-Whitney U tests. Data with the reference substance were analysed using Mann-Whitney U tests. Due to the number of groups, the study was conducted over 2 separate sub-experiments, each sub-experiment including 6 mice per group.

[3] = test system: patients with alcohol dependence; test: Study 12013A: clinical efficacy measured by POMS score; format: in vivo, human; settings: for POMS TMD score: patients with a mood disorder at baseline according to MINI assessment
Description: The term “POMS” is an abbreviation of “profile of mood states” and refers to a selfreport inventory scale developed to assess the effect of e.g. new medication on mood states and mood changes. The scale measures six domains: Tension-Anxiety, Depression-Rejection, Anger-Hostility, Vigour-Activity, Fatigue-Inertia, and Confusion-Bewilderment. A total mood disturbance (TMD) score can be calculated. In general, a lower POMS score indicates a better mood state than a higher score except for vigour-activity, for which a higher POMS score indicates a better mood state. The scale has been described e.g. by McNair et al., Profile of mood states. San Diego, Calif.: Educational and Industrial Testing Service and by Nyenhios and Yamamoto, J. Clin. Psychology, (1999), Vol. 55(1): 79-86.
as §1, §2
Assessment of POMs scores in Study 12013A was used to evaluate the effect of nalmefene on mood states and mood changes throughout the study. The change in POMS scores from baseline are illustrated in FIGS. 3-9.
In general, a lower POMS score indicates a better mood state than a higher score except for vigour, illustrated in FIGS. 7a and 7b, wherein a higher POMS score indicates a better mood state.
as §3

Mice (NMRI) [4] = test: Forced swim test in mouse; format: in vivo; settings: for Duration of immobility, Mean ± SEM: last 4 of 6 minutes
Experimental: The method, which detects antidepressant activity, follows that described by Porsolt et al (Arch. Int. Pharmacodyn., 229, 327-336, 1977). Mice forced to swim in a situation from which they cannot escape eventually become immobile. Antidepressants decrease the duration of immobility.
Nalmefene was tested as the sole active compound. Mice (NMRI) were individually placed in a cylinder (height=24 em; diameter=13 em) containing 10 cm water (22° C.) from which they cannot escape. The mice were placed in the water for 6 minutes and the duration of immobility during the last 4 minutes was measured. The latency to the first bout of immobility was also recorded starting from the beginning of the test.
10 mice were studied per group. The test was performed blind. Each test substance was evaluated at 3 doses (0.1, 1 and 10 mg/kg), administered s.c. 30 minutes before the test, and compared with a vehicle control group.
Imipramine (32 mg/kg s.c.), administered under the same experimental conditions, was used as reference substance. The experiment therefore included 8 groups.
Data with the test substance were analysed by comparing treated groups with vehicle control using one-way ANOVA followed by post-hoc Dunnett's tests. Data with the reference substance were analysed using unpaired Student's t tests. Due to the number of groups, the study was conducted over 2 separate sub-experiments, each subexperiment including 5 mice per group.

κ receptor = κ receptor (Homo sapiens, UniProt P41145); settings: in vitro; cited from earlier work
Sequence of κ receptor (P41145 whole entry): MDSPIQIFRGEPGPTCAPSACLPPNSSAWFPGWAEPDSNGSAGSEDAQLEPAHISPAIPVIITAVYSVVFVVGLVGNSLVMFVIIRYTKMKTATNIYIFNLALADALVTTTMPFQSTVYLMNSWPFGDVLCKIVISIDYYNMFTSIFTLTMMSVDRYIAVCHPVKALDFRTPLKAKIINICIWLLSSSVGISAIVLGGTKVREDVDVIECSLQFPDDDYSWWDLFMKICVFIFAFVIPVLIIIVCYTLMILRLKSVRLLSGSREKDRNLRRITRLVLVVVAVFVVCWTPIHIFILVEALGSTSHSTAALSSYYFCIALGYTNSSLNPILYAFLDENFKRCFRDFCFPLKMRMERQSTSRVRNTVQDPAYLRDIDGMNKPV

μ receptor = μ receptor (Homo sapiens, UniProt P35372); settings: in vitro; cited from earlier work
Sequence of μ receptor (P35372 whole entry): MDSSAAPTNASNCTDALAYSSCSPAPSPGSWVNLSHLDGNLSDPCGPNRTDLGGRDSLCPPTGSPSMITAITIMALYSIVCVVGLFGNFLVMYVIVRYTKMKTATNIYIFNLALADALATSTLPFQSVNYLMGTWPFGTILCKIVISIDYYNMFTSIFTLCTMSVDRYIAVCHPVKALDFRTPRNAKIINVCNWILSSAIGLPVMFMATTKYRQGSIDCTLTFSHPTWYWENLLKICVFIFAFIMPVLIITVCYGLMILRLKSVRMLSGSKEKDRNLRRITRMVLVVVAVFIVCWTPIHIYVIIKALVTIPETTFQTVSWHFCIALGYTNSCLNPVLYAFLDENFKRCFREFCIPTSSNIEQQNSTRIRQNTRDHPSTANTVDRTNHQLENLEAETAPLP

[5] = test system: patients with comorbid bipolar disorders; settings: literature; cited from earlier work
[6] = 1 year, nalmefene 18 mg as-needed
[7] = 0.01 mg/kg s.c. 30 minutes before the test
[8] = 0.1 mg/kg s.c. 30 minutes before the test
[9] = 1 mg/kg s.c. 30 minutes before the test
[10] = 10 mg/kg s.c. 30 minutes before the test

C=C1CC[C@@]2(O)[C@H]3Cc4ccc(O)c5c4[C@@]2(CCN3CC2CC2)[C@H]1O5 [Nalmefene, 17-(cyclopropylmethyl)-4,5-alpha-epoxy-6-methylenemorphinan-3,14-diol]
HDD [1, 6]: 6.0
TAC [1, 6]: 20.8 g/day
HDD ([1]; Baseline, N=22): 16.0
TAC ([1]; Baseline, N=22): 80.3 g/day
alcohol consumption ([1]; patients with a mood disorder at baseline (MedDRA)): significally reduced the alcohol consumption
difference between nalmefene and placebo in HDDs ([1]; patients with a mood disorder at baseline compared with patients without, week 24, FIG. 1): more pronounced
difference between nalmefene and placebo in TAC ([1]; patients with a mood disorder at baseline compared with patients without, week 24, FIG. 2): more pronounced
reducing TAC versus placebo ([1]; total patient group): superior to placebo
reducing the number of HDDs versus placebo ([1]; total patient group): superior to placebo
activity at the δ receptor (δ receptor): antagonist activity
duration of immobility during the 5 minute test (Rats (Wistar)): No significant effect
Number of marbles covered by sawdust, % compared with vehicle (Mice (NMRI) [2]; [7]): −5%
Number of marbles covered by sawdust, Mean ± SEM (Mice (NMRI) [2]; [7]): 23.5 ± 1.2
Number of marbles covered by sawdust, Mean ± SEM (Mice (NMRI) [2]; [8]): 21.5 ± 1.2
Number of marbles covered by sawdust, % compared with vehicle (Mice (NMRI) [2]; 0.1 mg/kg s.c. 30 minutes before the test, p<0.01): −13%
Number of marbles covered by sawdust, % compared with vehicle (Mice (NMRI) [2]; 0.1 mg/kg s.c. 30 minutes before the test, p<0.01, listed as nalmefene): −13%
Number of marbles covered by sawdust, % compared with vehicle (Mice (NMRI) [2]; [9]): −10%
Number of marbles covered by sawdust, Mean ± SEM (Mice (NMRI) [2]; [9]): 22.4 ± 1.4
effect on number of marbles covered by sawdust (Mice (NMRI) [2]; 0.01 or 1 mg/kg s.c.): no significant effects
POMS TMD score [3, 6]: 37
POMS TMD score ([3]; Baseline, N=22): 68
general mood state (POMS data overall) ([3]; patients with a mood disorder): general mood state improves
POMS score at the end of the study versus placebo ([3]; patients with a mood disorder at baseline, FIGS. 3b-9b): better POMS score
POMS scores versus placebo: total mood disturbance, tension-anxiety, depression-rejection, anger-hostility and confusion ([3]; patients with a mood disorder at baseline, weeks 16-24, FIGS. 3b, 4b, 5b, 6b, 9b): better POMS scores
pattern in POMS score versus placebo ([3]; patients without a mood disorder at baseline, FIGS. 3a-9a): no pronounced difference between nalmefene and placebo
Duration of immobility, % compared with vehicle (Mice (NMRI) [4]; [8]): +6%
Duration of immobility, Mean ± SEM (Mice (NMRI) [4]; [8]): 206 ± 7 s
latency to immobility (Mice (NMRI) [4]; 1 mg/kg s.c. 30 minutes before the test, versus vehicle): did not significantly affect
Duration of immobility, Mean ± SEM (Mice (NMRI) [4]; [9]): 140 ± 22 s
Duration of immobility, % compared with vehicle (Mice (NMRI) [4]; 1 mg/kg s.c. 30 minutes before the test, p<0.05): −28%
Duration of immobility, % compared with vehicle (Mice (NMRI) [4]; [10]): −3%
Duration of immobility, Mean ± SEM (Mice (NMRI) [4]; [10]): 189 ± 11 s
effect in forced swim test (Mice (NMRI) [4]; 0.1 or 10 mg/kg s.c.): no effects
activity at the κ receptor (κ receptor): partial agonist activity
activity at the μ receptor (μ receptor): antagonist activity

O=C1CCc2ccc(OCCCCN3CCN(c4cccc(Cl)c4Cl)CC3)cc2N1 [aripiprazole]
efficacy on measures of alcohol use and dependence [5]: ineffective

OCCOCCN1CCN(C2=Nc3ccccc3Sc3ccccc32)CC1 [quetiapine]
efficacy on measures of alcohol use and dependence [5]: ineffective
